Measured values as given in the NIST ThermoML archive (doi:10.1016/j.jct.2005.04.018).

Details: Liquid; for speed of sound: Linear variable-path acoustic interferometer; for mass density: Vibrating tube method

CCCC[n+]1ccn(C)c1.O=S(=O)([N-]S(=O)(=O)C(F)(F)F)C(F)(F)F
Details | mass density [kg/m3] | speed of sound [m/s]
283.15 K, 100 kPa | – | 1264.5
283.15 K, 5090 kPa | – | 1280.8
283.15 K, 9980 kPa | – | 1296.8
283.15 K, 20020 kPa | – | 1327.9
283.15 K, 29950 kPa | – | 1357.3
283.15 K, 44830 kPa | – | 1398.7
283.15 K, 59710 kPa | – | 1437.5
283.15 K, 79700 kPa | – | 1486.8
283.15 K, 98920 kPa | – | 1531.3
283.15 K, 124410 kPa | – | 1586.6
283.15 K, 151000 kPa | – | 1640.5
293.15 K, 100 kPa | – | 1238.1
293.15 K, 5000 kPa | – | 1254.6
293.15 K, 10020 kPa | – | 1271.2
293.15 K, 20010 kPa | – | 1302.5
293.15 K, 59650 kPa | – | 1411.8
293.15 K, 99720 kPa | – | 1505.9
293.15 K, 151200 kPa | – | 1611.9
298.15 K, 100 kPa | 1437.04 | –
298.15 K, 5000 kPa | 1440.78 | –
298.15 K, 7460 kPa | 1442.64 | –
298.15 K, 9920 kPa | 1444.45 | –
298.15 K, 12380 kPa | 1446.22 | –
298.15 K, 14840 kPa | 1447.99 | –
298.15 K, 17300 kPa | 1449.71 | –
298.15 K, 19760 kPa | 1451.41 | –
298.15 K, 22210 kPa | 1453.09 | –
298.15 K, 24670 kPa | 1454.75 | –
298.15 K, 27130 kPa | 1456.4 | –
298.15 K, 29590 kPa | 1458.04 | –
298.15 K, 32050 kPa | 1459.61 | –
298.15 K, 34510 kPa | 1461.19 | –
298.15 K, 36970 kPa | 1462.78 | –
298.15 K, 39430 kPa | 1464.31 | –
298.15 K, 41880 kPa | 1465.81 | –
298.15 K, 44340 kPa | 1467.33 | –
298.15 K, 46800 kPa | 1468.8 | –
298.15 K, 49260 kPa | 1470.28 | –
298.15 K, 51720 kPa | 1471.69 | –
298.15 K, 54180 kPa | 1473.13 | –
298.15 K, 56640 kPa | 1474.55 | –
298.15 K, 59100 kPa | 1475.94 | –
303.14 K, 100 kPa | 1432.49 | –
303.14 K, 5000 kPa | 1436.13 | –
303.14 K, 7460 kPa | 1437.93 | –
303.14 K, 9920 kPa | 1439.73 | –
303.14 K, 12380 kPa | 1441.51 | –
303.14 K, 14840 kPa | 1443.23 | –
303.14 K, 17300 kPa | 1444.96 | –
303.14 K, 19760 kPa | 1446.65 | –
303.14 K, 22210 kPa | 1448.37 | –
303.14 K, 24670 kPa | 1449.99 | –
303.14 K, 27130 kPa | 1451.64 | –
303.14 K, 29590 kPa | 1453.25 | –
303.14 K, 32050 kPa | 1454.87 | –
303.14 K, 34510 kPa | 1456.47 | –
303.14 K, 36970 kPa | 1458.05 | –
303.14 K, 39430 kPa | 1459.6 | –
303.14 K, 41880 kPa | 1461.17 | –
303.14 K, 44340 kPa | 1462.67 | –
303.14 K, 46800 kPa | 1464.2 | –
303.14 K, 49260 kPa | 1465.69 | –
303.14 K, 51720 kPa | 1467.16 | –
303.14 K, 54180 kPa | 1468.67 | –
303.14 K, 56640 kPa | 1470.14 | –
303.14 K, 59100 kPa | 1471.59 | –
303.15 K, 100 kPa | – | 1217.5
303.15 K, 5030 kPa | – | 1234
303.15 K, 10000 kPa | – | 1250.7
303.15 K, 20030 kPa | – | 1282.8
303.15 K, 59720 kPa | – | 1393.5
303.15 K, 98960 kPa | – | 1485.9
303.15 K, 150840 kPa | – | 1592.9
308.09 K, 100 kPa | 1427.92 | –
308.09 K, 5000 kPa | 1431.5 | –
308.09 K, 7460 kPa | 1433.28 | –
308.09 K, 9920 kPa | 1435.07 | –
308.09 K, 12380 kPa | 1436.81 | –
308.09 K, 14840 kPa | 1438.55 | –
308.09 K, 17300 kPa | 1440.27 | –
308.09 K, 19760 kPa | 1441.96 | –
308.09 K, 22210 kPa | 1443.64 | –
308.09 K, 24670 kPa | 1445.32 | –
308.09 K, 27130 kPa | 1446.94 | –
308.09 K, 29590 kPa | 1448.61 | –
308.09 K, 32050 kPa | 1450.21 | –
308.09 K, 34510 kPa | 1451.8 | –
308.09 K, 36970 kPa | 1453.43 | –
308.09 K, 39430 kPa | 1454.99 | –
308.09 K, 41880 kPa | 1456.59 | –
308.09 K, 44340 kPa | 1458.14 | –
308.09 K, 46800 kPa | 1459.69 | –
308.09 K, 49260 kPa | 1461.21 | –
308.09 K, 51720 kPa | 1462.74 | –
308.09 K, 54180 kPa | 1464.26 | –
308.09 K, 56640 kPa | 1465.8 | –
308.09 K, 59100 kPa | 1467.28 | –
313.15 K, 100 kPa | 1422.99 | 1194.5
313.15 K, 5000 kPa | 1426.56 | –
313.15 K, 5010 kPa | – | 1211.5
313.15 K, 7460 kPa | 1428.4 | –
313.15 K, 9920 kPa | 1430.14 | –
